Measurements from patent publication US7572825B2, “Ketones and reduced ketones as therapeutic agents for the treatment of bone conditions” (The University Court of the University of Aberdeen, priority 2003, dated 2009).

Tests used:
J774 macrophages = assay: Alamar Blue macrophage J774 viability assay; assay type: cell-based; conditions: Mus musculus, 72 hours exposure, J774 macrophage cell line, read-out: IC50 against J774 macrophages (viability)
Procedure: Initial screening of candidate compounds was performed using viability assays, on cultures of the macrophage cell line J774, which have been used before as a model system for osteoclast survival (see, e.g., Luckman et al., 1998). The assay is based on the survival of the J774 macrophage cell line; macrophages are closely related to osteoclasts, and contain similar high levels of esterase activity.
J774 cells were plated at 10^4 cells per well in 150 μL αMEM (α Modified Eagle Medium) in 96-well plates and grown overnight. The next day, compounds were added to the cultures, and culture was continued for another 72 hours. At the end of the culture period cell survival was determined using an Alamar Blue assay as previously described (see, e.g., Nociari et al., 1998).
Alamar Blue is an oxidation-reduction sensitive indicator. The dye itself is in the oxidised state, which is blue and non-fluorescent. […] Thus the transformation from oxidised form to reduced form can be measured by fluorimetric or colourimetric means. For fluorescence measurements, 530-560 nm excitation and 590 nm emission wavelengths are typically used. For colourimetric measurements, absorbance is measured at 570 nm (reduced form) and 600 nm (oxidised form) and a simple calculation performed to determine the relative quantities of the two species. […]

osteoblasts = assay: Alamar Blue mouse osteoblast assay; assay type: cell-based; conditions: 72 hours exposure, read-out: IC50 against osteoblasts (survival)
Procedure: Osteoblasts were isolated as described above and plated at 10^4 cells/well in 96-well plates in 100 μL of αMEM supplemented with 10% FCS and antibiotics. Test compounds were added after 24 hours and left for 72 hours. Cell viability was assessed using the Alamar Blue assay as described for J774 macrophages. Alamar Blue (Biosource International) was added undiluted to each well (1:10 v/v, 10 μL). The plate was incubated at 37° C. for 3 to 4 hours and the fluorescence was measured at 570 nm, with a 25 nm bandwidth.
Osteoblast Isolation. Briefly, osteoblasts were isolated from the calvarial bones of 2-day-old mice by sequential collagenase digestion (type I collagenase, Sigma) and cultured in αMEM supplemented with 10% FCS (foetal calf serum) and penicillin and streptomycin at 37° C. in 5% CO2.
More specifically, osteoblasts were obtained from a collagenase digestion of the calvaria (skull bones) of 2-3 day old neo-natal MF1 mice. At this stage in their development these are soft and easily removed. The calvaria from 5-6 mice were carefully dissected and washed in HBSS (Hank's balanced saline solution). The calvaria were placed in a 15 mL tube and shaken at 37° C. in 4 mL collagenase (10 mg/ml) for 10 minutes. This removes the excess unwanted tissue. The liquid was disposed of and a further 4 mL collagenase (10 mg/ml) added to the tube. The calvaria were then digested for a further 30 minutes. […]

[1] = system: ovariectomy induced bone loss; assay: Ovariectomy induced bone loss in mice, trabecular bone mineral density by pQCT; assay type: in vivo; conditions: OVX female C57/BL6 mice, 20 mg/kg by gavage in olive oil, 21 days, tibial metaphysis
Procedure: Animals. Female 9 week-old C57/BL6 mice. Animals were housed in a designated animal facility and routinely maintained on a 12 h:12 h light:dark cycle and given ad libitum access to food and water. Ovariectomy induced bone loss. Bilateral ovariectomy (Ovx) was performed under general anaesthesia. Sham ovariectomy (Sham) was similarly performed but with externalisation and replacement of the ovaries. Animals were given a gavage of (a) candidate compound (e.g., 20 mg/kg) in vehicle (olive oil), or (b) vehicle (olive oil). After 21 days, the animals were killed, and the tibial bones were dissected and used for bone mineral density measurements. Bone Mineral Measurements. Measurements of bone mineral density (BMD) at the left proximal tibial metaphysis were determined by peripheral quantitative computed tomography (pQCT) using an XCT Research M bone densitometer with a voxel size of 70 μm and analysis software version 5.1.4. (Stratec Medizintechnik, Pforzheim, Germany). Daily quality assurance measurements were performed using a plexi-coated PVC-fluorinated hydrocarbon phantom according to the manufacturer's instructions.

Row | Compound | IC50 (J774 macrophages) [µM] | IC50 (osteoblasts) [µM] | reversal of ovariectomy-induced bone loss (percent change in trabecular BMD) [1]
1 | O=C(CCCCCO)c1ccc(-c2ccccc2)cc1 [ABD-68, 6-Hydroxy-1-(4-biphenyl)hexan-1-one] | < 20 | > 100 | very effective at reversing the bone loss
2 | OCCCCCC(O)c1ccc(-c2ccccc2)cc1 (centres unmarked) [ABD-150, 1-Biphenyl-4-yl-hexan-1,6-diol] | < 20 | > 100 | 
